Assay results reported in US6916918B2, “Human glandular kallikrein enhancer, vectors comprising the enhancer and methods of use thereof” (priority 1997, dated 2005).

test system: LNCaP cells transfected with CN390; test: steroid hormone specificity of the 1.17-kb hKLK2 enhancer, luciferase reporter; format: cell-based, human; details: FIG. 14
Protocol: To assess the androgen specificity of the hKLK2 enhancer, LNCaP cells transfected with CN390 (1.17-kb “full enhancer activity” hKLK2 enhancer/minimal hKLK2 promoter) were treated with various steroid hormones.

SMILES | induction of luciferase activity by steroid hormone vs cells not treated with hormones
C[C@@H]1C[C@H]2[C@@H]3CCC4=CC(=O)C=C[C@]4(C)[C@@]3(F)[C@@H](O)C[C@]2(C)[C@@]1(O)C(=O)CO [DEX] | little or no inducibility
C[C@]12CCC(=O)C[C@@H]1CC[C@@H]1[C@@H]2CC[C@]2(C)[C@@H](O)CC[C@@H]12 [DHT, dihydrotestosterone] | marked increases in luciferase activity
C[C@]1(O)CC[C@H]2[C@@H]3CCC4=CC(=O)CCC4=C3C=C[C@@]21C [R1881, methyl trienolone] | marked increases in luciferase activity
CC/C(=C(/CC)c1ccc(O)cc1)c1ccc(O)cc1 [DES] | little or no inducibility
